{
  "source": "patent US10301298B2",
  "about": "“Methods, compounds, and compositions for the treatment of angiotensin-related diseases” (University of Southern California, priority 2013, dated 2019)",
  "key": {"AT1R": {"target": "T1, AT1R (Homo sapiens, UniProt P30556)", "T1 sequence (P30556 1-359)": "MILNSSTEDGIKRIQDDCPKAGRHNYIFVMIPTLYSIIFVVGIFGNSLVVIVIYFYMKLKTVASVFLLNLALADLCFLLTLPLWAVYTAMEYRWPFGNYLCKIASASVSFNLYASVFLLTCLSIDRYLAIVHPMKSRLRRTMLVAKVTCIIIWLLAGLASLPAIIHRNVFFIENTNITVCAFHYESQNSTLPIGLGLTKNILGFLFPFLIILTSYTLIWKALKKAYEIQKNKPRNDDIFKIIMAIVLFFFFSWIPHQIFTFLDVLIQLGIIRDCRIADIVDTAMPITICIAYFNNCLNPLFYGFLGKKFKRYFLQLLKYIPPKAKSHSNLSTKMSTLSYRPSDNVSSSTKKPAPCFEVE", "test": "AT1R displacement assay with radiolabeled Ang II", "format": "binding", "conditions": "displacement of radiolabeled Ang II or analogs; read-out: EC50 displacing Ang II at the AT1 receptor", "method": "Compound 7 was evaluated in vitro for its ability to compete with ratholabeled Ang II or analogs in a displacement assay for AT1R and AT2R receptors."}, "Mas": {"target": "T2, Mas (Homo sapiens, UniProt P04201)", "T2 construct": "expressed in transfected cells", "T2 sequence (P04201 1-325)": "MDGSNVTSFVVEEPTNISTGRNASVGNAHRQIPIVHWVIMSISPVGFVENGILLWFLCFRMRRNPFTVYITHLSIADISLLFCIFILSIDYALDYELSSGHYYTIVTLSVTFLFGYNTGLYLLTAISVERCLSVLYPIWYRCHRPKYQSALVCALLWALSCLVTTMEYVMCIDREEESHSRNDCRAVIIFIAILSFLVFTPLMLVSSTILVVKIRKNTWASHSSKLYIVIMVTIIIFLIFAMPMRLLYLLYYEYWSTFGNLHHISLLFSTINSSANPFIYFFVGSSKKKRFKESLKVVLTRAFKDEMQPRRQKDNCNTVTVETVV", "test": "Competition binding assay, displacement of fluorescent Ang(1-7) from Mas-transfected CHO cells", "set-up": "concentration or dose not given beside the values", "conditions": "CHO cells transfected with Human mas1, on ice", "method": "CHO cells stably transfected with recombinant Human mas1 proto-oncogen driven by the human cytomegalovirus were grown to 80% confluency. The cells were detached with trypsin and harvested by centrifugation. Cells were washed three times in progressively colder buffers. The final number of cells per assay was 5×10^5. All subsequent steps were performed on ice. Test compound was added to the cells for 10 minutes prior to addition of fluorescently labeled A(1-7). After 10 minutes further incubation, the cells were washed to remove unbound A(1-7) and the fluorescence bound was read at an excitation of 490 nm and an emission of 520 nm."}, "db/db mice": {"tested_on": "db/db mice", "test": "Bone marrow cell counts and progenitor colonies in db/db mice", "format": "in vivo", "conditions": "500 mcg/kg/day subcutaneously, 14 days", "method": "The femurs and tibia were collected from db/db mice treated 500 mcg/kg/day Ang(1-7) or Compound 7 subcutaneously for 14 days were euphanized and the bone marrow were collected by flushing with PBS containing 2% fetal calf serum. After collection of the bone marrow, the red blood cells will be lysed with a hypotonic solution (described above), mixed with 0.04% trypan blue and the number of nucleated cells was assessed by hematocytometer under light microscopy. Aliquots of cells were then resuspended at 1×10^6 cells/ml (GM and GEMM, bone marrow), 1.5×10^6 cells/ml (BFU-E, bone marrow). One hundred μ1 of each suspension was added to 900 μl of semisolid medium containing 0.9% methyl cellulose in Iscove's MDM, 15% fetal calf serum, 1% bovine serum albumin, 10 μg/ml bovine pancreatic insulin, 200 μg/ml human transferrin, 10^−4 M 2-mercaptoethanol, 2 mM glutamine, 10 ng/ml recombinant murine interleukin 3, 10 ng/ml recombinant human interleukin 6, 50 ng/ml recombinant murine stem cell factor and 3 units/ml erthropoietin. This mixture was then added to duplicate wells of a 24 well plate. The cultures were then placed at 37° C. in a humidified atmosphere of 5% CO2 in air. At day 14, the number of progenitor colonies formed was enumerated under phase contrast microscopy.\nThe bone marrow cells were also cultured to assess the number of MSCs by a CFU—F assay. 2.5×10^5 cells/ml, 2 ml per well, were diluted into Mesencult medium (Stem Cell Technologies, Vancouver, BC, Canada) and 2 mL were placed in each well of a 24 well plate. The cultures were then incubated at 37° C. in a humidified atmosphere of 5% CO2 in air. At days 2, 5 and 8, the number of progenitor colonies formed was enumerated under phase contrast microscopy."}, "[1]": {"test": "Oral bioavailability in C57Bl/6 mice", "format": "in vivo", "conditions": "500 μg/kg, oral gavage vs intravenous", "method": "Compound 7 was evaluated for oral bioavailability at 500 μg/kg in C57Bl/6 mice. The drug was given by intravenous injection or by oral gavage and blood was collected at 0.5, 1, 2, 4, 8, 24 hours into heparinized tubes. The level of drug in the blood was measured by liquid chromatograph-mass spectrometry. Bioavailability was determined using the following ratio AUCIG/AUCIV (FIG. 10)."}},
  "note": "pEC50: −log10 of the molar value.",
  "data": [
    {"smiles": "CCCCOC(=O)NS(=O)(=O)c1ccc(OC(F)(F)F)cc1-c1ccc(Cn2ccnc2)cn1", "note": "[Compound 7, butyl (2-(5-((1H-imidazol-1-yl)methyl)pyridin-2-yl)-4-(trifluoromethoxy)phenyl)sulfonylcarbamate]", "values": [
      {"measurement": "pEC50", "setting": "AT1R", "result": "< 5.00"},
      {"measurement": "% Displacement", "setting": "Mas", "result": 28.1, "unit": "%"},
      {"measurement": "bone marrow counts", "setting": "db/db mice", "result": "increase bone marrow counts"},
      {"measurement": "increase in bone marrow cell number, CFU-GEMM, CFU-GM, BFU-E and MSC", "setting": "db/db mice", "result": "comparable to Ang(1-7)"},
      {"measurement": "bone marrow counts", "setting": "db/db mice; listed as compound 7", "result": "increased the bone marrow counts"},
      {"measurement": "oral bioavailability (AUCIG/AUCIV)", "setting": "[1]", "result": 30, "unit": "%"}
    ]}
  ]
}
